According to patent publication US9814699B2, “Chemical compounds” (Janssen Pharmaceuticals, Inc., priority 2009, dated 2017):

Experiments:
[1] = system: HCV genotype 1a subgenomic replicon; assay: HCV replicon assay, genotype 1a subgenomic replicon (luciferase); assay type: cell-based; conditions: Hepatitis C virus; genotype 1a replicon stable cell line, luciferase activity measured 48 hours later; read-out: Replicon 1A pEC50 (converted)
In short: (§1)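 Stable Huh-type bicistronic firefly-luciferase replicon cells (1b ET line with E1202G/T1280I/K1846T; 1a line) exposed 48 h to compounds from 0.03 pM to 50 μM final, 0.5–1% DMSO. Luciferase inhibition normalised to controls. EC50 from 11-point curves with four-parameter logistic fit; cytotoxicity by CellTiter-Glo.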

[2] = system: HCV genotype 1b subgenomic replicon; assay: HCV replicon assay, genotype 1b subgenomic replicon (ET cell line, luciferase); assay type: cell-based; conditions: Hepatitis C virus; genotype 1b replicon ET cell line, luciferase activity measured 48 hours later; read-out: Replicon 1B pEC50 (converted)
In short: as §1

SMILES | EC50 [1] | EC50 [2]
CNC(=O)N1CC2(CC(c3ncc(-c4ccc(-c5ccc(-c6cnc([C@@H]7CCCN7C(=O)[C@@H](NC(=O)OC)C(C)C)[nH]6)cc5)cc4)[nH]3)N(C(=O)[C@@H](NC(=O)OC)C(C)C)C2)C1 (stereo partly drawn) [Example 27, methyl [(1S)-2-methyl-1-({(2S)-2-[4-(4′-{2-[2-[(methylamino)carbonyl]-6-((2S)-3-methyl-2-{[(methyloxy)carbonyl]amino}butanoyl)-2,6-diazaspiro[3.4]oct-7-yl]-1H-imidazol-4-yl}-4-biphenylyl)-1H-imidazol-2-yl]-1-pyrrolidinyl}carbonyl)propyl]carbamate] | 6.31 nM | 0.251 nM
COC(=O)N[C@H](C(=O)N1CC2(CC1c1ncc(-c3ccc(-c4ccc(-c5cnc([C@@H]6CCCN6C(=O)[C@@H](NC(=O)OC)C(C)C)[nH]5)cc4)cc3)[nH]1)CN(S(C)(=O)=O)C2)C(C)C (stereo partly drawn) [Example 28, methyl [(1S)-2-methyl-1-({(2S)-2-[4-(4′-{2-[6-((2S)-3-methyl-2-{[(methyloxy)carbonyl]amino}butanoyl)-2-(methylsulfonyl)-2,6-diazaspiro[3.4]oct-7-yl]-1H-imidazol-4-yl}-4-biphenylyl)-1H-imidazol-2-yl]-1-pyrrolidinyl}carbonyl)propyl]carbamate] | 1.58 nM | 0.0501 nM
COC(=O)N[C@H](C(=O)N1CCC[C@H]1c1ncc(-c2ccc(-c3ccc(-c4cnc([C@@H]5CC6(CN5C(=O)[C@@H](NC(=O)OC)C(C)C)CC(F)(F)C6)[nH]4)cc3)cc2)[nH]1)C(C)C [Example 29, methyl [(1S)-1-({(2S)-2-[4-(4′-{2-[(7S)-2,2-difluoro-6-((2S)-3-methyl-2-{[(methyloxy)carbonyl]amino}butanoyl)-6-azaspiro[3.4]oct-7-yl]-1H-imidazol-4-yl}-4-biphenylyl)-1H-imidazol-2-yl]-1-pyrrolidinyl}carbonyl)-2-methylpropyl]carbamate] | 0.1 nM | 0.00316 nM
COC(=O)N[C@H](C(=O)N1CCC[C@H]1c1ncc(-c2ccc(-c3ccc(-c4cnc(C5CCC6(CCOCC6)N5C(=O)[C@@H](NC(=O)OC)C(C)C)[nH]4)cc3)cc2)[nH]1)C(C)C (stereo partly drawn) [Example 30, methyl [(1S)-2-methyl-1-({(2S)-2-[4-(4′-{2-[1-((2S)-3-methyl-2-{[(methyloxy)carbonyl]amino}butanoyl)-8-oxa-1-azaspiro[4.5]dec-2-yl]-1H-imidazol-4-yl}-4-biphenylyl)-1H-imidazol-2-yl]-1-pyrrolidinyl}carbonyl)propyl]carbamate] | 1.58 nM | 0.0631 nM
COC(=O)N[C@H](C(=O)N1CCC[C@H]1c1ncc(-c2ccc(-c3ccc(-c4cnc(C5CCC6(CCOCC6)N5C(C)=O)[nH]4)cc3)cc2)[nH]1)C(C)C (stereo partly drawn) [Example 31, methyl ((1S)-1-{[(2S)-2-(4-{4′-[2-(1-acetyl-8-oxa-1-azaspiro[4.5]dec-2-yl)-1H-imidazol-4-yl]-4-biphenylyl}-1H-imidazol-2-yl)-1-pyrrolidinyl}carbonyl]-2-methylpropyl)carbamate] | 0.316 nM | 0.0126 nM
COC(=O)N[C@H](C(=O)N1CCC[C@H]1c1ncc(-c2ccc(-c3ccc(-c4c[nH]c(C5CCC6(CCC(F)(F)CC6)N5C(=O)[C@@H](NC(=O)OC)C(C)C)n4)cc3)cc2)[nH]1)C(C)C (stereo partly drawn) [Example 32, methyl [(1S)-1-({(2S)-2-[4-(4′-{2-[8,8-difluoro-1-((2S)-3-methyl-2-{[(methyloxy)carbonyl]amino}butanoyl)-1-azaspiro[4.5]dec-2-yl]-1H-imidazol-4-yl}-4-biphenylyl)-1H-imidazol-2-yl]-1-pyrrolidinyl}carbonyl)-2-methylpropyl]carbamate] | 1.58 nM | 0.0158 nM
CC[C@H](NC(=O)OC)C(=O)N1C(c2nc(-c3ccc(-c4ccc(-c5cnc([C@@H]6CCCN6C(=O)[C@@H](NC(=O)OC)C(C)C)[nH]5)cc4)cc3)c[nH]2)CCC12CCC(F)(F)CC2 (stereo partly drawn) [Example 33, methyl [(1S)-1-({8,8-difluoro-2-[4-(4′-{2-[(2S)-1-((2S)-3-methyl-2-{[(methyloxy)carbonyl]amino}butanoyl)-2-pyrrolidinyl]-1H-imidazol-4-yl}-4-biphenylyl)-1H-imidazol-2-yl]-1-azaspiro[4.5]dec-1-yl}carbonyl)propyl]carbamate] | 1 nM | 0.0158 nM
COC(=O)N[C@@H](C)C(=O)N1C(c2nc(-c3ccc(-c4ccc(-c5cnc([C@@H]6CCCN6C(=O)[C@@H](NC(=O)OC)C(C)C)[nH]5)cc4)cc3)c[nH]2)CCC12CCC(F)(F)CC2 (stereo partly drawn) [Example 34, methyl ((1S)-2-{8,8-difluoro-2-[4-(4′-{2-[(2S)-1-((2S)-3-methyl-2-{[(methyloxy)carbonyl]amino}butanoyl)-2-pyrrolidinyl]-1H-imidazol-4-yl}-4-biphenylyl)-1H-imidazol-2-yl]-1-azaspiro[4.5]dec-1-yl}-1-methyl-2-oxoethyl)carbamate] | 0.631 nM | 0.01 nM
COC(=O)N[C@@H](CC(C)C)C(=O)N1C(c2nc(-c3ccc(-c4ccc(-c5cnc([C@@H]6CCCN6C(=O)[C@@H](NC(=O)OC)C(C)C)[nH]5)cc4)cc3)c[nH]2)CCC12CCC(F)(F)CC2 (stereo partly drawn) [Example 35, methyl [(1S)-1-({8,8-difluoro-2-[4-(4′-{2-[(2S)-1-((2S)-3-methyl-2-{[(methyloxy)carbonyl]amino}butanoyl)-2-pyrrolidinyl]-1H-imidazol-4-yl}-4-biphenylyl)-1H-imidazol-2-yl]-1-azaspiro[4.5]dec-1-yl}carbonyl)-3-methylbutyl]carbamate] | 2 nM | 0.0126 nM
COC(=O)N[C@H](C(=O)N1CCC[C@H]1c1ncc(-c2ccc(-c3ccc(-c4c[nH]c(C5CCC6(CCC(F)(F)CC6)N5C(C)=O)n4)cc3)cc2)[nH]1)C(C)C (stereo partly drawn) [Example 36, methyl ((1S)-1-{[(2S)-2-(4-{4′-[2-(1-acetyl-8,8-difluoro-1-azaspiro[4.5]dec-2-yl)-1H-imidazol-4-yl]-4-biphenylyl}-1H-imidazol-2-yl)-1-pyrrolidinyl]carbonyl}-2-methylpropyl)carbamate] | 25.1 nM | 0.1 nM
COC(=O)N[C@H](C(=O)N1CCC[C@H]1c1ncc(-c2ccc(-c3ccc(-c4c[nH]c(C5CCC6(CCS(=O)(=O)CC6)N5C(=O)[C@@H](NC(=O)OC)C(C)C)n4)cc3)cc2)[nH]1)C(C)C (stereo partly drawn) [Example 37, methyl [(1S)-2-methyl-1-({(2S)-2-[4-(4′-{2-[1-((2S)-3-methyl-2-{[(methyloxy)carbonyl]amino}butanoyl)-8,8-dioxido-8-thia-1-azaspiro[4.5]dec-2-yl]-1H-imidazol-4-yl}-4-biphenylyl)-1H-imidazol-2-yl]-1-pyrrolidinyl}carbonyl)propyl]carbamate] | 12.6 nM | 0.316 nM
